The numbers were not newly measured in publication PMC4408534 (Journal of nuclear medicine : official publication, Society …, 2014), which cites them from elsewhere.

Each structure is given as a SMILES string.

Data set [1] deals with human SSTR2-transfected cell membranes. The conditions noted are these: ± SEM, ref [27].
Data set [2] concerns rat SSTR2 expressed in AR42J membranes. To be noted: ref [28].

As to `C[C@@H](O)[C@H](NC(=O)[C@@H]1CSSC[C@H](NC(=O)[C@@H](Cc2ccccc2)NC(=O)CN2CCN(CC(=O)[O-])CCN(CC(=O)[O-])CCN(CC(=O)[O-])CC2)C(=O)N[C@@H](Cc2ccc(O)cc2)C(=O)N[C@H](Cc2c[nH]c3ccccc23)C(=O)N[C@@H](CCCCN)C(=O)N[C@@H]([C@@H](C)O)C(=O)N1)C(=O)O.[177Lu+3]` [177-Lu-Dotatate, Lu-177-Tyr3-octreotate], the “binding affinity, human SSTR2” value in data set [1] is 1.5 ± 0.4 nM. Further, in data set [2], the “binding affinity, rat SSTR2” value was 0.21 to 0.23 nM.
